From ChEMBL document CHEMBL3797079, “Synergistic reduction of HIV-1 infectivity by 5-azacytidine and inhibitors of ribonucleotide reductase” (Bioorg Med Chem, 2016)
The source made the active and inactive calls. The calls are words filed in the database; no cut-off is given here.

Tests used:
[1] = Cytotoxicity against human U373-MAGI cells at 2.5 nM measured at 72 hrs by Celltiter-Glo luminescent cell viability assay; type: cell-based; conditions: 0.0025 µM
U373-MAGI [2] = assay: Reduction in dTTP level in human U373-MAGI cells at 25 nM after 6 hrs by LC-MS/MS analysis; type: functional, cell-based
[3] = Reduction in dATP level in human U373-MAGI cells at 2.5 nM after 6 hrs by LC-MS/MS analysis; type: functional; design: scale not given: the % may be the effect or the level left
U373-MAGI [4] = assay: Effect on dRGU-TP level in human U373-MAGI cells at 25 nM preincubated for 2 hrs followed by 5-aza-dC addition measured after 4 hrs by LC-MS/MS analysis; type: functional, cell-based
U373-MAGI [5] = assay: Reduction in dRGU-TP level in human U373-MAGI cells at 25 nM preincubated for 2 hrs followed by 5-aza-C addition measured after 4 hrs by LC-MS/MS analysis; type: functional, cell-based
U373-MAGI [6] = assay: Increase in 5-aza-dCTP/dCTP ratio in human U373-MAGI cells at 25 nM preincubated for 2 hrs followed by 5-aza-dC addition measured after 4 hrs by LC-MS/MS analysis relative to 5-aza-dC; type: functional, cell-based
U373-MAGI [7] = assay: Reduction in 5-aza-dCTP level in human U373-MAGI cells at 25 nM preincubated for 2 hrs followed by 5-aza-C addition measured after 4 hrs by LC-MS/MS analysis; type: functional, cell-based
U373-MAGI [8] = assay: Reduction in dCTP level in human U373-MAGI cells at 2.5 nM preincubated for 2 hrs followed by 5-aza-C addition measured after 4 hrs by LC-MS/MS analysis; type: functional, cell-based
U373-MAGI [9] = assay: Increase in 5-aza-dCTP/dCTP ratio in human U373-MAGI cells at 2.5 nM preincubated for 2 hrs followed by 5-aza-dC addition measured after 4 hrs by LC-MS/MS analysis relative to 5-aza-dC; type: functional, cell-based
U373-MAGI [10] = assay: Effect on 5-aza-dCTP level in human U373-MAGI cells at 25 nM preincubated for 2 hrs followed by 5-aza-dC addition measured after 4 hrs by LC-MS/MS analysis; type: functional, cell-based
U373-MAGI [11] = assay: Reduction in dCTP level in human U373-MAGI cells at 25 nM after 6 hrs by LC-MS/MS analysis; type: functional, cell-based
U373-MAGI [12] = assay: Reduction in dATP level in human U373-MAGI cells at 25 nM after 6 hrs by LC-MS/MS analysis; type: functional, cell-based
U373-MAGI [13] = assay: Reduction in dGTP level in human U373-MAGI cells at 25 nM after 6 hrs by LC-MS/MS analysis; type: functional, cell-based
U373-MAGI [14] = assay: Reduction in dTTP level in human U373-MAGI cells at 2.5 nM after 6 hrs by LC-MS/MS analysis; type: functional, cell-based
U373-MAGI [15] = assay: Increase in 5-aza-dCTP/dCTP ratio in human U373-MAGI cells at 25 nM preincubated for 2 hrs followed by 5-aza-C addition measured after 4 hrs by LC-MS/MS analysis relative to 5-aza-C; type: functional, cell-based
U373-MAGI [16] = assay: Effect on dRGU-TP level in human U373-MAGI cells at 2.5 nM preincubated for 2 hrs followed by 5-aza-dC addition measured after 4 hrs by LC-MS/MS analysis; type: functional, cell-based
U373-MAGI [17] = assay: Reduction in dRGU-TP level in human U373-MAGI cells at 2.5 nM preincubated for 2 hrs followed by 5-aza-C addition measured after 4 hrs by LC-MS/MS analysis; type: functional, cell-based
U373-MAGI [18] = assay: Reduction in dCTP level in human U373-MAGI cells at 25 nM preincubated for 2 hrs followed by 5-aza-dC addition measured after 4 hrs by LC-MS/MS analysis relative to 5-aza-dC; type: functional, cell-based
U373-MAGI [19] = assay: Reduction in dCTP level in human U373-MAGI cells at 25 nM preincubated for 2 hrs followed by 5-aza-C addition measured after 4 hrs by LC-MS/MS analysis relative to 5-aza-C; type: functional, cell-based
[20] = test system: Human immunodeficiency virus 1; assay: Antiviral activity against VSV-G pseudotyped HIV-1 NL4-3 infected in human U373-MAGI cells assessed as reduction in viral infectivity at 2.5 nM incubated for 4 hrs prior to viral infection measured at 72 hrs post infection by flow cytometric analysis; type: functional, organism-based
U373-MAGI [21] = assay: Reduction in dCTP level in human U373-MAGI cells at 2.5 nM after 6 hrs by LC-MS/MS analysis; type: functional, cell-based
[22] = test system: Human immunodeficiency virus 1; assay: Potentiation of 5-Aza-C-induced antiviral activity against VSV-G pseudotyped HIV-1 NL4-3 infected in human U373-MAGI cells assessed as decrease in 5-Aza-C EC50 at 2.5 nM preincubated for 2 hrs followed by 5-Aza-C addition for 2 hrs and subsequent viral infection measured at 72 hrs post infection by flow cytometric analysis relative to control; type: functional
U373-MAGI [23] = assay: Reduction in dGTP level in human U373-MAGI cells at 2.5 nM after 6 hrs by LC-MS/MS analysis; type: functional, cell-based
U373-MAGI [24] = assay: Reduction in 5-aza-dCTP level in human U373-MAGI cells at 2.5 nM preincubated for 2 hrs followed by 5-aza-C addition measured after 4 hrs by LC-MS/MS analysis; type: functional, cell-based
U373-MAGI [25] = assay: Effect on 5-aza-dCTP level in human U373-MAGI cells at 2.5 nM preincubated for 2 hrs followed by 5-aza-dC addition measured after 4 hrs by LC-MS/MS analysis; type: functional, cell-based
U373-MAGI [26] = assay: Reduction in dCTP level in human U373-MAGI cells at 2.5 nM preincubated for 2 hrs followed by 5-aza-dC addition measured after 4 hrs by LC-MS/MS analysis relative to 5-aza-dC; type: functional, cell-based
U373-MAGI [27] = assay: Increase in 5-aza-dCTP/dCTP ratio in human U373-MAGI cells at 2.5 nM preincubated for 2 hrs followed by 5-aza-C addition measured after 4 hrs by LC-MS/MS analysis relative to 5-aza-C; type: functional, cell-based

For `Nc1ccn([C@@H]2O[C@H](CO)[C@@H](O)C2(F)F)c(=O)n1` [GEMCITABINE], the Activity [1] was “Non-toxic”, the Activity (U373-MAGI [2]) was “inactive” and the Activity [3] was 30%. The Activity (U373-MAGI [4]) was “inactive”, the Activity (U373-MAGI [5]) was “Active” and the Activity (U373-MAGI [6]) was “Active”. The Activity (U373-MAGI [7]) was “Active”, the Activity (U373-MAGI [8]) was “Active” and the Activity (U373-MAGI [9]) was “Active”. For the same compound, the Activity (U373-MAGI [10]) was “inactive”, the Activity (U373-MAGI [11]) was “Active” and the Activity (U373-MAGI [12]) was “Active”. The Activity (U373-MAGI [13]) was “Active”, the Activity (U373-MAGI [14]) was “inactive” and the Activity (U373-MAGI [15]) was “inactive”. The Activity (U373-MAGI [16]) was “inactive”, the Activity (U373-MAGI [17]) was “inactive” and the Activity (U373-MAGI [18]) was “Active”. The Activity (U373-MAGI [19]) was “Active”, the Activity [20] was “Active” and the Activity (U373-MAGI [21]) was “inactive”. The “fold change (FC)” value [22] was 2.5, the Activity (U373-MAGI [23]) was “inactive” and the Activity (U373-MAGI [24]) was “inactive”. The Activity (U373-MAGI [25]) was “inactive”, the Activity (U373-MAGI [26]) was “Active” and the Activity (U373-MAGI [27]) was “inactive”.
